{"source": "patent US20200255828A1", "about": "“METHODS AND COMPOSITIONS FOR ALTERING FUNCTION AND STRUCTURE OF CHROMATIN LOOPS AND/OR DOMAINS” (THE BROAD INSTITUTE, INC., priority 2017, published 2020)", "key": {"HCT-116 RAD21-mAC cells": {"test_system": "HCT-116 RAD21-mAC cells", "experiment": "PRO-Seq nascent transcription after cohesin loss", "format": "cell-based, human", "from_the_text": "Finally, Applicants sought to investigate the role of cohesin in regulating gene expression. Cohesin has been proposed to facilitate interactions between enhancers and promoters (Kagey et al., 2010; Merkenschlager and Nora, 2016). Loop domains are thought to regulate this process by preventing enhancers from forming ectopic interactions with targets that lie in a different loop domain (Lupiáñez et al., 2015; Flavahan et al., 2016). Applicants therefore characterized the effects of cohesin loss on nascent transcription by performing precision nuclear run-on sequencing (PRO-Seq) in treated and untreated HCT116 cells (Engreitz et al., 2016; Jonkers and Lis, 2015) (FIG. 7A). Applicants chose an early timepoint—6 hours after auxin treatment—with the aim of examining direct consequences, rather than indirect effects due to changes in cell state.\n(§1) To measure changes in transcription resulting from cohesin loss, Applicants performed precision run-on sequencing (PRO-Seq) (Jonkers and Lis, 2015), a variant of global run-on sequencing (GRO-Seq), using a single biotinylated nucleotide (biotin-11-CTP) as previously described (Engreitz et al., 2016). Applicants made one modifications to the protocol: at the end of each biotin enrichment, Applicants eluted biotinylated RNAs from the streptavidin-coated magnetic beads by heating beads in 25 μl of 20 mM Tris-HCl pH 7.5, 10 mM EDTA, 2% N-lauroylsarcosine at 95° C. for 5 minutes, followed by a magnetic-bead nucleic acid purification with 20 μl of MyONE SILANE beads. During the nuclei preparation step, Applicants processed pairs of RAD21-mAC cells with and without auxin treatment in parallel. In addition, Applicants performed PRO-Seq on HCT-116 CMV-OsTIR1 cells, the parental cell line of RAD21-mAC containing the OsTIR1 gene integrated at the AAVS1 locus and no mAID tags integrated on any protein. By performing PRO-Seq on CMV-OsTIR1 cells with and without auxin treatment, Applicants could control for transcriptional effects of the auxin treatment itself on HCT-116 cells, as well as any consequences of tagging the RAD21 protein.\nFor analysis of PRO-Seq data, Applicants aligned 30-bp paired-end reads to the hg19 reference (bowtie2 v2.1.0, (Langmead and Salzberg, 2012)), removed duplicate reads (Picard picard.sourceforge.net), and discarded reads with MAPQ <30. Applicants counted reads overlapping RefSeq genes (collapsed by gene symbol to the longest isoform)—this quantification procedure includes signal both at the paused position (near the TSS) as well as in the gene body. Applicants identified genes showing significant differences in transcription with DESeq2 (Love et al., 2014), excluding genes with zero coverage in all samples and calling significance at Benjamini-Hochberg corrected p-value <0.05.\nTo determine whether there were global changes in the total amount of transcription (up or down) that would affect the normalization and analysis of these experiments, Applicants included a spike-in control in three of the four PRO-Seq replicates for each of untreated and treated RAD21-mAC and CMV-OsTIR1 cells. Specifically, Applicants added ˜500,000 Drosophila S2 cells at the beginning of the protocol. Upon sequencing of these libraries, Applicants counted the number of spike-in reads by aligning to the Drosophila genome (dme13) with bowtie2 v2.1.0.\nAssessment of changes in transcription after cohesin loss. […]"}, "HCT-116-CMV-OsTIR1 cells": {"test_system": "HCT-116-CMV-OsTIR1 cells", "experiment": "PRO-Seq control for the auxin hormone itself", "format": "cell-based, human", "details": "no mAID tag on any protein", "procedure": "as §1, with “RAD21 protein. […]” for “RAD21 protein.”"}, "RAD21-mAC cells": {"test_system": "RAD21-mAC cells", "experiment": "Gene expression changes between untagged HCT-116 cells and auxin-treated RAD21-mAC cells", "format": "cell-based", "details": "auxin-treated RAD21-mAC cells compared with untagged HCT-116 cells", "from_the_text": "To our surprise, Applicants only identified 68 cell type specific loops (compared to […] each per pair of cell types in Rao et al 2014). In order to increase statistical power, Applicants identified 518 loops that had been called in one of our cell types in Rao et al 2014 (HMEC, IMR90, K562, HUVEC, HeLa, NHEK) but not in GM12878, or vice versa and had been associated with 10-fold upregulation of a gene whose promoter lay at the loop anchor. Applicants sought to then identify cases where these loop-gene pairs were present in HCT-116 to then examine the results of loop loss. However, only 15 of the 518 loops were conserved in HCT-116. […] Alternatively, it is possible that the tagging of cohesin and resulting potential loss of stability results in preferential loss of cell type specific loops. […] In fact, it may be the case that some other regulatory event catalyzes both loop formation and gene activation, or that gene activation itself enables loop formation."}}, "data": [{"smiles": "O=C(O)Cc1c[nH]c2ccccc12", "note": "[auxin, indole-3-acetic acid]", "values": [{"measurement": "AKAP12 expression down-regulation", "setting": "HCT-116 RAD21-mAC cells; upon auxin treatment", "result": 3.3, "unit": "fold"}, {"measurement": "IER5L expression down-regulation", "setting": "HCT-116 RAD21-mAC cells; upon auxin treatment", "result": 2.6, "unit": "fold"}, {"measurement": "KITLG expression down-regulation", "setting": "HCT-116 RAD21-mAC cells; upon auxin treatment", "result": 2.73, "unit": "fold"}, {"measurement": "number of genes 2-fold downregulated with p<0.05 after auxin treatment", "setting": "HCT-116 RAD21-mAC cells; vs untreated HCT-116-CMV-OsTIR1 control", "result": 43}, {"measurement": "number of genes 1.75-fold downregulated with p<0.05 after auxin treatment", "setting": "HCT-116 RAD21-mAC cells; vs untreated RAD21-mAC cells", "result": 49}, {"measurement": "number of genes detected as significantly different before vs after auxin treatment", "setting": "HCT-116-CMV-OsTIR1 cells", "result": 105}, {"measurement": "number of genes significantly different with at least a 1.3-fold change", "setting": "HCT-116-CMV-OsTIR1 cells", "result": 56}, {"measurement": "genes with a greater than 5-fold change in expression", "setting": "RAD21-mAC cells", "result": 3}]}]}
